Laboratory results: ChEMBL document CHEMBL5053523, “Design, synthesis, and structure-activity relationship of PD-1/PD-L1 inhibitors with a benzo[d]isoxazole scaffold” (Bioorg Med Chem Lett, 2021)
pIC50: −log10 of the molar value.

How the values were obtained:
[1] = molecular target: T1, Programmed cell death protein 1/Programmed cell death 1 ligand 1 (Homo sapiens, UniProt Q15116+Q9NZQ7); assay: Inhibition of PD-1/PDL1 protein-protein interaction (unknown origin); format: protein-complex assay
[2] = molecular target: T1, Programmed cell death protein 1/Programmed cell death 1 ligand 1; assay: Inhibition of PD-1/PDL1 protein-protein interaction (unknown origin) by HTRF assay; format: protein-complex assay

T1 sequence (Q15116 whole entry): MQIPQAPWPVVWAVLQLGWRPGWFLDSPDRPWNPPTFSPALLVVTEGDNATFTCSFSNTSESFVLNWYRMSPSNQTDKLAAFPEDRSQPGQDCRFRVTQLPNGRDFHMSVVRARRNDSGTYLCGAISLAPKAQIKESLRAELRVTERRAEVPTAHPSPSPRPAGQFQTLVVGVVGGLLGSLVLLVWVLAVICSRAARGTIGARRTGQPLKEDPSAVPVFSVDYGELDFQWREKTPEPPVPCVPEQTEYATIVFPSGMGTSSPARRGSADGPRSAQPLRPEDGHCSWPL
T1 sequence (Q9NZQ7 whole entry): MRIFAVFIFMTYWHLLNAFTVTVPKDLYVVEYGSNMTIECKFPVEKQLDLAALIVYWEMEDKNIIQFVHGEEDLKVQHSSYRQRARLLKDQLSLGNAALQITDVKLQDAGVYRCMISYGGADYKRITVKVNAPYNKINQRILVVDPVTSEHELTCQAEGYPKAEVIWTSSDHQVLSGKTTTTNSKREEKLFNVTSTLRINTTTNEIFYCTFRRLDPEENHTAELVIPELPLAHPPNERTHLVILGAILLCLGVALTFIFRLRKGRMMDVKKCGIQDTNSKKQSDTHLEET

| SMILES | pIC50 [1] | pIC50 [2] |
| --- | --- | --- |
| N#Cc1cncc(COc2cc(OC3CCc4c(-c5ccccc5)cccc43)c(Cl)cc2CN[C@@H](CO)C(=O)O)c1 (stereo partly specified) | > 7.00 | – |
| O=C(O)CNCc1ccc2c(Nc3cccc(-c4ccccc4)c3Cl)noc2c1 | – | 6.14 |
| O=C(O)CNCc1ccc2onc(Nc3cccc(-c4ccccc4)c3Cl)c2c1 | – | 7.52 |
| CC(=O)NCCNCc1ccc2c(Nc3cccc(-c4ccccc4)c3Cl)noc2c1 | – | 5.69 |
| O=C(O)[C@H](CO)NCc1ccc2onc(Nc3cccc(-c4ccccc4)c3Cl)c2c1 | – | 7.57 |
| O=C(O)CNCc1ccc2c(Nc3cccc(-c4ccc5c(c4)OCCO5)c3Cl)noc2c1 | – | 6.42 |
| O=C(O)[C@H](CO)NCc1ccc2c(Nc3cccc(-c4ccc5c(c4)OCCO5)c3Cl)noc2c1 | – | 5.76 |
| CC(=O)NCCNCc1ccc2onc(Nc3cccc(-c4ccccc4)c3Cl)c2c1 | – | 6.71 |
| OCCNCc1ccc2c(Nc3cccc(-c4ccc5c(c4)OCCO5)c3Cl)noc2c1 | – | 6.12 |
| O=C(O)[C@H](CO)NCc1ccc2onc(Nc3cccc(-c4ccc5c(c4)OCCO5)c3Cl)c2c1 | – | 7.29 |
| O=C(O)[C@H](CO)NCc1ccc2c(Nc3cccc(-c4ccccc4)c3Cl)noc2c1 | – | 5.62 |
| OCCNCc1ccc2c(Nc3cccc(-c4ccccc4)c3Cl)noc2c1 | – | 5.19 |
| O=C(O)C1CCN(Cc2ccc3onc(Nc4cccc(-c5ccccc5)c4Cl)c3c2)CC1 | – | 6.21 |
| CC(=O)NCCNCc1ccc2onc(Nc3cccc(-c4ccc5c(c4)OCCO5)c3Cl)c2c1 | – | 6.36 |
| O=C(O)C1CN(Cc2ccc3onc(Nc4cccc(-c5ccccc5)c4Cl)c3c2)C1 | – | 6.44 |
| O=C(O)CNCc1ccc2onc(Nc3cccc(-c4ccc5c(c4)OCCO5)c3Cl)c2c1 | – | 7.04 |

| SMILES | pIC50 [1] | pIC50 [2] |
| --- | --- | --- |
| OCCNCc1ccc2onc(Nc3cccc(-c4ccc5c(c4)OCCO5)c3Cl)c2c1 | – | 5.52 |
| Cc1c(/C=C/c2c(Cl)cc(CNC(C)(CO)C(=O)O)cc2C(F)(F)F)cccc1-c1ccc2c(c1)OCCO2 (stereo unspecified) | 7.74 | – |
| COC(=O)[C@H](CO)NCc1ccc2onc(Nc3cccc(-c4ccccc4)c3Cl)c2c1 | – | 5.79 |
| CC(=O)NCCNCc1ccc2c(Nc3cccc(-c4ccc5c(c4)OCCO5)c3Cl)noc2c1 | – | 6.08 |
| OCCNCc1ccc2onc(Nc3cccc(-c4ccccc4)c3Cl)c2c1 | – | 6.10 |
| Cc1c(NC(=O)c2cccc(CNCCO)n2)cccc1-c1ccccc1 | ≥ 8.00 | – |
| OC1CCN(Cc2ccc3onc(Nc4cccc(-c5ccc6c(c5)OCCO6)c4Cl)c3c2)C1 (racemic) | – | 5.89 |
| OC1CCN(Cc2ccc3c(Nc4cccc(-c5ccccc5)c4Cl)noc3c2)C1 (racemic) | – | 5.83 |
| OC1CCN(Cc2ccc3onc(Nc4cccc(-c5ccccc5)c4Cl)c3c2)C1 (racemic) | – | 6.33 |
| O=C(O)C1CCN(Cc2ccc3onc(Nc4cccc(-c5ccccc5)c4Cl)c3c2)C1 (racemic) | – | 6.35 |
| O=C(O)C1CCN1Cc1ccc2onc(Nc3cccc(-c4ccccc4)c3Cl)c2c1 (racemic) | – | 6.32 |
| O=C(O)C1CCCN1Cc1ccc2onc(Nc3cccc(-c4ccccc4)c3Cl)c2c1 (racemic) | – | 7.07 |
| O=C(O)C1CCCCN1Cc1ccc2onc(Nc3cccc(-c4ccccc4)c3Cl)c2c1 (racemic) | – | 7.15 |
| OC1CCN(Cc2ccc3c(Nc4cccc(-c5ccc6c(c5)OCCO6)c4Cl)noc3c2)C1 (racemic) | – | 5.77 |
| O=C(O)C1CCCN(Cc2ccc3onc(Nc4cccc(-c5ccccc5)c4Cl)c3c2)C1 (racemic) | – | 7.03 |
